Measurements as given in patent US20260043803A1, “MEANS FOR DETECTING S[…]” (ACADEMISCH ZIEKENHUIS LEIDEN (H.O.D.N. LUMC), priority 2022, published 2026).

Key:
[1] = tested on: IgG antibodies; experiment: Microarray, serum IgG binding to printed CAA structures, controlled human infection samples; conditions: three individual sera, FIG. 14
Description: (§1) Immunopurified native schistosome CAA, synthetic di-, tetra-, hexa-, and octasaccharides with appropriate positive and negative controls were printed in triplicates onto epoxilane coated glass slides (Nexterion Slide E, Schott 1066643) with a MicroGrid robot (BioRobotics). See general methodology in (de Boer, Hokke et al. 2007).
(§2) Microarrays with fitted silicone gaskets (64 samples/slide) were reconstituted in 1×PBS and blocked for minimum one hour (PBS, 2% bovine serum albumin (Sigma-Aldrich A3059) with 50 mM ethanolamine (>99.5%, Sigma-Aldrich 411000)) on shaker. Each array washed in PBS Tween 0.05%, PBS and 30 ul serum sample 1:100 in buffer/array added for 1 hour incubation at room temperature on shaker. Arrays were then washed (as above) and 1:1000 detection antibodies added (goat anti-human IgG-Cy-3, Sigma-Aldrich C2571; goat anti-human IgM-AF647, Invitrogen, A21249) for 30 min room temperature incubation on shaker. Finally, slides were washed as above with an additional wash in milli-Q before they were spun dry and scanned (Agilent Scan Control™ 2006). […]
(§3) Microarray scan images were obtained through Agilent Feature Extraction 10.7.3.1 and imported into GenePixPro vs7. Spot morphology quality was inspected and median fluorescence intensity (MFI) values obtained per nanodot with an average of a triplicate per target used for analyses. […]

[2] = tested on: IgM antibodies; experiment: Microarray, serum IgM binding to printed CAA structures, controlled human infection samples; conditions: individual level, infection with 10, 20, 30 cercariae; FIG. 3-5
Description: as §1
Microarrays with fitted silicone gaskets (64 samples/slide) were reconstituted in 1×PBS and blocked for minimum one hour (PBS, 2% bovine serum albumin (Sigma-Aldrich A3059) with 50 mM ethanolamine (>99.5%, Sigma-Aldrich 411000)) on shaker. Each array washed in PBS Tween 0.05%, PBS and 30 ul serum sample 1:100 in buffer/array added for 1 hour incubation at room temperature on shaker. Arrays were then washed (as above) and 1:1000 detection antibodies added (goat anti-human IgG-Cy-3, Sigma-Aldrich C2571; goat anti-human IgM-AF647, Invitrogen, A21249) for 30 min room temperature incubation on shaker. Finally, slides were washed as above with an additional wash in milli-Q before they were spun dry and scanned (Agilent Scan Control™ 2006). For nasosorption samples, they were incubated as above with the following changes. Samples were eluted in PBS 1% BSA 0.05% Triton-X and incubated as 1:2 dilution. For detection goat anti-human IgA-Dylight 650 (Novus NBP 1-75754) was used in 500×dilution.
(§4) Microarray scan images were obtained through Agilent Feature Extraction 10.7.3.1 and imported into GenePixPro vs7. Spot morphology quality was inspected and median fluorescence intensity (MFI) values obtained per nanodot with an average of a triplicate per target used for analyses. Further data processing was done in Microsoft Excel and graphs were generated using GraphPad Prism 9.3.1.

[3] = tested on: IgA antibodies; experiment: Microarray, IgA binding in nasosorption samples, controlled human infection; conditions: 20 cercariae, baseline and 8 weeks post infection; FIG. 10
Description: as §1, §2, §3

[4] = tested on: IgA antibodies; experiment: Microarray, IgA binding in serum samples, controlled human infection; conditions: 20 cercariae, n=7, eight weeks post infection; FIG. 9
Description: as §1
Microarrays with fitted silicone gaskets (64 samples/slide) were reconstituted in 1×PBS and blocked for minimum one hour (PBS, 2% bovine serum albumin (Sigma-Aldrich A3059) with 50 mM ethanolamine (>99.5%, Sigma-Aldrich 411000)) on shaker. Each array washed in PBS Tween 0.05%, PBS and 30 ul serum sample 1:100 in buffer/array added for 1 hour incubation at room temperature on shaker. […] Finally, slides were washed as above with an additional wash in milli-Q before they were spun dry and scanned (Agilent Scan Control™ 2006). […] Samples were eluted in PBS 1% BSA 0.05% Triton-X and incubated as 1:2 dilution. […]
as §4

Row | Compound | IgM response pattern compared with native CAA [2] | IgM background at baseline (specificity) [2] | also measured
1 | 6-aminohexyl 2-acetamido-2-deoxy-3-O-(3-D-glucoronic acid)-6-O-(2-acetamido-2-deoxy-3-O-(3-D-glucuronic acid)-6-O-(2-acetamido-2-deoxy-3-O-(β-D-glucuronic acid)-6-O-(2-acetamido-2-deoxy-3-O-(3-D-glucuronic acid)-6-O-(2-acetamido-2-deoxy-3-O-(3-D-glucuronic acid)-β-D-galactopyranose)-β-D-galactopyranose)-3-D-galactopyranose-β-D-galactopyranose [CAA decasaccharide] |  |  | IgG response at week 8 after infection ([1]; 20 male S. mansoni cercariae): equal or stronger than to shorter CAA fragments; IgG pre-infection response ([1]; prior to infection): negligible
2 | CC(=O)NC1C(O[C@@H]2OC(C(=O)O)[C@@H](O)C(O)C2O)[C@@H](O)C(CO)O[C@H]1OCCCCCCN (stereo partly drawn) [disaccharide, 6-aminohexyl 2-acetamido-2-deoxy-3-O-(β-D-glucoronic acid)-β-D-galactopyranose] | not representative of CAA |  | 
3 | CC(=O)NC1C(O[C@@H]2OC(C(=O)O)[C@@H](O)C(O)C2O)[C@@H](O)C(CO)O[C@H]1OCC1O[C@@H](OCC2O[C@@H](OCC3O[C@@H](OCCCCCCN)C(NC(C)=O)C(O[C@@H]4OC(C(=O)O)[C@@H](O)C(O)C4O)[C@H]3O)C(NC(C)=O)C(O[C@@H]3OC(C(=O)O)[C@@H](O)C(O)C3O)[C@H]2O)C(NC(C)=O)C(O[C@@H]2OC(C(=O)O)[C@@H](O)C(O)C2O)[C@H]1O (some centres unmarked) [octasaccharide] |  | improves further | detection of specific IgA in nasosorption samples [3]: detectable; detection of specific IgA in serum [4]: detection
4 | CC(=O)NC1C(O[C@@H]2OC(C(=O)O)[C@@H](O)C(O)C2O)[C@@H](O)C(CO)O[C@H]1OCC1O[C@@H](OCCCCCCN)C(NC(C)=O)C(O[C@@H]2OC(C(=O)O)[C@@H](O)C(O)C2O)[C@H]1O (stereo partly drawn) [tetrasaccharide, 6-aminohexyl 2-acetamido-2-deoxy-3-O-(β-D-glucoronic acid)-6-O-(2-acetamido-2-deoxy-3-O-(β-D-glucuronic acid)-β-D-galactopyranose)-β-D-galactopyranose] | a dynamic range resembling native material is starting to appear | too high | 
